The values that follow come from PMC9227781, “Inhibitors of O-Acetylserine Sulfhydrylase with a Cyclopropane-Carboxylic Acid Scaffold Are Effective Colistin Adjuvants in Gram Negative Bacteria” (Pharmaceuticals, 2022).

The test system of data set [1] is E. coli ATCC 25922. Nature of the data set: MIC by broth microdilution, E. coli. The format is cell-based, Escherichia coli. The conditions noted are these: Escherichia coli, ATCC25922; compound alone, MHB, 24 h at 37 °C; read-out: MIC (μg/mL) E.coli ATCC 25922. The essentials:
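CLSI-based broth microdilution in MHB, inoculum 5 × 10^5 CFU/mL from log-phase cultures, compounds tested at 256–0.5 µg/mL final, 24 h at 37 °C static aerobic. MIC read by unaided eye with mirror plus OD620 for growth inhibition; mean ± SD of three experiments in triplicate.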

In data set [2] the test system is K. pneumoniae ATCC13883. Description: Checkerboard assay with colistin, K. pneumoniae. The class given is cell-based, Klebsiella pneumoniae. The conditions noted are these: for reduction of the MIC of colistin, K. pneumoniae: association of colistin with compound; for MIC Colistin K. pneumoniae: colistin in combination with compound at 8 μg/mL. The procedure: (§1) Antimicrobial activity of associations between the different compounds and colistin (Sigma-Aldrich, St. Louis, MO, USA, lot n. 049M-4836 V) was tested with checkerboard assay with minor modifications, as mentioned in the previous work. For each assay, three experiments with three replicates each were assessed. For each compound tested concentration, 96-wells microtiter U-plates were prepared with twofold serial dilutions of colistin in MHB starting from the MIC value (µg/mL) for ten consecutive dilutions in 50 µL of broth. In each well of the same replicate, 1 µL of each compound in DMSO was added at a fixed concentration, 100 times higher than the final desired concentration (3.2; 1.6; 0.8 mg/mL). Subsequently, 49 µL of the bacterial suspension at a concentration of 10^6 CFU/mL, adjusted spectrophotometrically as reported above, was added to each well, reaching the final bacterial concentration of 5 × 10^5 CFU/mL. Growth and sterility controls were performed for each experiment and for each replicate. Finally, the plates were incubated at 37 °C in aerobic atmosphere for 24 h. After incubation, plates were read by unaided eye with a microtiter reading mirror and then the OD of each well of the plates was measured spectrophotometrically at 620 nm. MIC values were calculated as the arithmetic mean ± SD of the unaided eye reading and the inhibition of growth for each tested dilution was calculated from the OD values (mean ± SD).
(§2) To evaluate the antimicrobial effect of the two molecules in association, the FIC index was calculated as follows. The MICs of each of the two molecules tested individually and in combination with each other were evaluated and the results have been included in the following formula as reported by Meletiadis et al.: FIC=MICA in combination/MICA+MICB in combination/MICB where MICA was the MIC of the compound UPAR415 and MICA in combination was the MIC of UPAR415 in combination with colistin. MICB was the MIC of colistin and MICB in combination was the MIC of colistin in combination with UPAR415. From the results of the FIC index formula, the antimicrobial activity in combination of the two molecules can be considered: synergistic, additive, indifferent of antagonistic. If the FIC index is ≤ 0.5, the association is synergic; additive if FIC is between 0.5 and 1; indifferent if FIC is between 1 and 4; and antagonistic if FIC is ≥4 [50].
(§3) Statistical analysis of checkerboard results in comparison with MIC values of colistin alone was performed using the Analysis of Variance (ANOVA) test.

For data set [3], the system named is K. pneumoniae ATCC13883. Nature of the data set: MIC by broth microdilution, K. pneumoniae. The class given is cell-based, Klebsiella pneumoniae. Conditions: Klebsiella pneumoniae, ATCC13883; compound alone, MHB, 24 h at 37 °C; read-out: MIC (μg/mL) K. pneumoniae ATCC13883.
The test system of data set [4] is S. Typhimurium ATCC14028. Description: Checkerboard assay with colistin, S. Typhimurium. The class given is cell-based, Salmonella enterica serovar Typhimurium. The conditions noted are these: for MIC: Salmonella enterica, colistin in combination with compound at 8 μg/mL; for fold reduction with respect to the MIC of colistin alone, S. Typhimurium: compound at 8 µg/mL. The procedure:
as §1, §2, §3

For data set [5], the system named is MDBK cells. Nature of the data set: Cytotoxicity assay (MTT) on MDBK cells. The format is cell-based, bovine. Conditions: 32, 16, 8 µg/mL; MTT test. The procedure: The cytotoxicity assay was performed using the 3-(4,5-dimethylthiazol-2-yl)-2,5-diphenyltetrazolium bromide (MTT) test, following the procedure used by Donofrio et al.. MDBK cells were cultured on microtiter tissue culture plates in DMEM medium for 24 h at 37 °C in the presence of 5% CO2. After incubation, when the cell monolayer was at confluence, an aliquot of 1 µL of UPAR415 in DMSO at different concentrations was added in each well, containing a volume of 100 µL of DMEM medium and MDBK cells, and then the plates were reincubated at the same conditions. After incubation, 10 µL of MTT at 200 mg/mL (3-(4,5-dimethylthiazol-2-yl)-2,5-diphenyltetrazolium bromide) was added to each well and incubated at 37 °C for 6 h. At the end of the incubation, 100 µL of the solubilization solution (10% SDS in 0.01 M HCl) was added to each well and then incubated overnight. The MTT compound, a yellow tetrazolium salt, is reduced by mitochondrial enzymes (succinate dehydrogenase) of metabolically active eukaryotic cells to insoluble formazan crystals. In the presence of metabolically active cells, after the addition of a detergent solution (10% SDS in […]) that allows the formazan to be released from the cells, a violet color is seen in the medium. Instead, in the presence of non-viable cells, MTT is not reduced to formazan and therefore the solution will remain yellow.
After incubation, plates were read with a spectrophotometer at 620 nm. Positive controls (PC)—without any compounds—and PCs with 1% DMSO were performed for each plate and three replicates for two independent experiments were performed for each assay.
In general terms: Tetrazolium assays rely on reduction of a dye to a coloured formazan, in cell work by metabolically active cells.

The mark [6] stands for this setting: compound at 8 μg/mL with colistin.

Bounds are passed on as bounds.

With `CCOC(=O)C1(Cc2ccc(C)cc2)CC1c1cccc(N2CC(C)OC(C)C2)c1` (stereo not drawn) [Compound 12h, trans-ethyl 2-(3-(2,6-dimethylmorpholino)phenyl)-1-(4-methylbenzyl)cyclopropanecarboxylate], the MIC in data set [1] was more than 512 µg/mL. In data set [2], the “reduction of the MIC of colistin, K. pneumoniae” value was “has not led to a reduction of the MIC of colistin” and the “MIC Colistin K. pneumoniae” value was found to be 8.00 ± 0.0 mg/L. Further, in data set [2] (setting [6]), the “FIC Index K. pneumoniae” value worked out at 2.01; the “FIC Index interpretation K. pneumoniae” value was “indifference (indifferent if FIC is between 1 and 4)”. Further, the MIC in data set [3] was more than 512 µg/mL. In data set [4], the MIC came to 0.101 ± 0.07 mg/L and the “fold reduction with respect to the MIC of colistin alone, S. Typhimurium” value came out at 5 fold. In addition, in data set [4] (colistin in combination with 12h at 32 μg/mL, S. Typhimurium ATCC14028 (wild type)), the “MIC Colistin” value came to 0.125 ± 0.08 mg/L. Moreover, in data set [4] (setting [6]), the “FIC Index S. Typhimurium” value was found to be 0.21 and the “FIC Index interpretation S. Typhimurium” value is reported as “synergy (If the FIC index is ≤ 0.5, the association is synergic)”. In addition, the “Toxicity on viability of MDBK cells” value in data set [5] was “lowest toxicity profile”.

Consider `Cc1ccc(CC2(C(=O)O)CC2c2cccc(N3CC(C)OC(C)C3)c2)cc1` (stereo not drawn) [Compound 13h, trans-2-(3-(2,6-dimethylmorpholino)phenyl)-1-(4-methylbenzyl)cyclopropanecarboxylic acid], for which, in data set [1], the MIC is more than 512 µg/mL. For the same compound, in data set [2], the “reduction of the MIC of colistin, K. pneumoniae” value is “has not led to a reduction of the MIC of colistin” and the “MIC Colistin K. pneumoniae” value amounted to 3.33 ± 1.0 mg/L. Besides, in data set [2] (setting [6]), the “FIC Index K. pneumoniae” value is reported as 0.85. In addition, in data set [2] (compound at 32 and 16 µg/mL), the “effect on MIC of colistin, K. pneumoniae” value is recorded as “only a slight effect”. Moreover, in data set [3], the MIC is more than 512 µg/mL. In data set [4], the MIC was 0.468 ± 0.01 mg/L and the “fold reduction with respect to the MIC of colistin alone, S. Typhimurium” value is recorded as 2 fold. Moreover, the “FIC Index S. Typhimurium” value in data set [4] (setting [6]) amounted to 0.90. The “Toxicity on viability of MDBK cells” value in data set [5] is on record as “lowest toxicity profile”.
